Values quoted from earlier work, collected in patent publication US20140107050A1, “INCREASING BIOAVAILABILITY OF N-COUMAROYLDOPAMINE THROUGH CO-ADMINISTRATION WITH A CATECHOL-O-[…] (COMT) INHIBITOR” (Redefine Nutrition, LLC, priority 2012, published 2014).

Legend:
[1] = biological target: T1, beta-adrenoreceptor (Homo sapiens, UniProt P07550); settings: recent in vitro studies (Park 2005)
T1 construct: increase cAMP via beta 2-adrenoreceptors in myelocytic U937 cells; endogenous in cells; host or cells: U937 cells

[2] = biological target: T2, catechol-o-methyltransferase (COMT) (Homo sapiens, UniProt P21964); settings: values taken from cited literature; read-out: half maximal inhibitory concentration (IC50) for COMT inhibition
T2 sequence (P21964 1-271): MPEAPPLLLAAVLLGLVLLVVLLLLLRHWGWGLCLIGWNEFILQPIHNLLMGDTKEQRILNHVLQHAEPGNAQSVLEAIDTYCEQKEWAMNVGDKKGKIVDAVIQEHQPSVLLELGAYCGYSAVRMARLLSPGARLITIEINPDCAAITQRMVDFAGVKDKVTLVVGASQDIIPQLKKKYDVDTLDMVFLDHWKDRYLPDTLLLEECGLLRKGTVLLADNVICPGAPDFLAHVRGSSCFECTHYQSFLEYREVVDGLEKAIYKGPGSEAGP

T1 sequence (P07550 whole entry): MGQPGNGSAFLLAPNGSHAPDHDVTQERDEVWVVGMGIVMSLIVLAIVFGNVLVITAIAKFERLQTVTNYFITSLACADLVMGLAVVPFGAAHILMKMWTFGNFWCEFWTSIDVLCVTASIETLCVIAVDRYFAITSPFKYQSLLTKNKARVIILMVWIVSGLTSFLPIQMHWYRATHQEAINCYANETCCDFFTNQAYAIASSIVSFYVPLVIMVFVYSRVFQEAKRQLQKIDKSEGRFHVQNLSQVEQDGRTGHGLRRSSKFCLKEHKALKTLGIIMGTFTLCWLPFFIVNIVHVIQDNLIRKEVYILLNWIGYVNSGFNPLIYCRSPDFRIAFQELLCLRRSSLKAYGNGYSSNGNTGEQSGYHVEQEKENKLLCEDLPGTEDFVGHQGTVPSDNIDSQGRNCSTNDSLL

| beta-adrenoreceptor agonist activity [1] | IC50 [2] | SMILES |
| --- | --- | --- |
| acts as a beta-adrenoreceptor agonist | – | O=C(/C=C/c1ccc(O)cc1)NCCc1ccc(O)c(O)c1 [N-coumaroyldopamine] |
| – | 1300 to 1400 nM | O=C(/C=C/c1ccc(O)c(O)c1)O[C@@H]1C[C@](O)(C(=O)O)C[C@@H](O)[C@H]1O [chlorogenic acid] |
| – | ~500 nM | O=c1c(O)c(-c2ccc(O)c(O)c2)oc2cc(O)cc(O)c12 [quercetin] |
